According to patent US8957093B2, “N-biphenylmethylindole modulators of PPARG” (The Scripps Research Institute, priority 2011, dated 2015):
Like-named read-outs stand apart in the source and are kept apart here.

Key:
GST-PPARG-LBD = GST-PPARG-LBD (Homo sapiens (Human), UniProt P37231); assay: Lanthascreen PPARG competitive binding assay (Invitrogen, TR-FRET); details: NA = not active, inc = incomplete curve, read-out: IC50 (nM) Lantha
In short: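 Values are fold change in 520 nm/490 nm FRET ratio relative to a 2% DMSO no-ligand control, excitation 340 nm. Compound dilutions starting at 10 μM competed against 5 nM Fluormone Pan-PPAR Green for GST-PPARG-LBD bound by 5 nM Tb anti-GST antibody. Incubation 2 h in the dark in assay buffer C, triplicate wells.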

[1] = target: PPARG (murine PPARg2 or full-length human PPARG, 3xPPRE-luciferase reporter) (Homo sapiens, UniProt P37231); assay: Cell-based PPRE-luciferase transactivation assay in COS-1 cells
Chain of PPARG (murine PPARg2 or full-length human PPARG, 3xPPRE-luciferase reporter) (Homo sapiens, UniProt P37231) (P37231 whole entry, looked up): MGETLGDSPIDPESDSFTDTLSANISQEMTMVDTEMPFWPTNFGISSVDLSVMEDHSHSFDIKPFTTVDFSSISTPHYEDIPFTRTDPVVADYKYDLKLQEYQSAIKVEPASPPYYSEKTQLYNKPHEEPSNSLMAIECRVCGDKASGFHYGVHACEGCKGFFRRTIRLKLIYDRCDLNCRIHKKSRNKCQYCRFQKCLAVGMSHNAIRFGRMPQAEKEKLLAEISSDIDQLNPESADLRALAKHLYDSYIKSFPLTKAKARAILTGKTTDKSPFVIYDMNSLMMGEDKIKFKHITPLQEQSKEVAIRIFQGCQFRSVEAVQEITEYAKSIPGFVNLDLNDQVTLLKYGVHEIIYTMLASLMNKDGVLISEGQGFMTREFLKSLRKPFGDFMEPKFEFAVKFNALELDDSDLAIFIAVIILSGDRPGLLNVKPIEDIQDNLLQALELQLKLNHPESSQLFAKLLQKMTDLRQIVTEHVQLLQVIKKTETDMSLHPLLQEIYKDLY
Description: (§1) Cell-Based Transactivation Assay:
(§2) PPRE is a DNA that contains a binding site for PPARG; thus PPRE is a PPAR response element, used herein as a promoter reporter. The binding site is a DR1 response element with the sequence AGGTCA repeated 3 times in tandem and then fused to a construct for luciferase.
(§3) Thus, PPRE is the basis of the cell based transactivation assay described below. The plasmid DNA is co-transfected along with a plasmid for PPARG into COS-1 cells. After an overnight incubation, cells are treated with DMSO or compounds.
(§4) Confluent COS-1 cells were transfected with 4.5 μg murine PPARg2-pSV Sport or full-length human PPAR9-pSport6, 4.5 μg 3×PPRE-luciferase reporter and 27 μL X-treme Gene 9 transfection reagent in serum-free opti-mem media (Gibco), followed by overnight incubation at 37° C., 5% CO2. Transfected cells were plated in white Perkin Elmer 384-well plates and incubated 4 hours. […] After 18 hour incubation, treated cells were developed with Brite Lite Plus (Perkin Elmer) and read in 384-well Luminescence Perkin Elmer EnVision Multilabel plate reader. Graphs were plotted in triplicate in GraphPad Prism Software as fold change of treated cells over DMSO control cells.

[2] = system: PPARG (murine PPARg2 or full-length human PPARG, 3xPPRE-luciferase reporter); assay: as above; details: for % transactivation (PPRE): PPRE transactivation data, at 10 μM
Description: as §1, §2, §3, §4

[3] = target: Rb protein (cdk5 substrate) (Homo sapiens (Human), UniProt Q00535); assay: cdk5 phosphorylation of Rb protein in vitro (Western blot); type: biochemical
Text: In order to develop a suitable ligand, we optimized compounds for (i) high binding affinity for PPARG, (ii) blocking the cdk5-mediated PPARG phosphorylation and (iii) lacking classical agonism. Classical agonism is defined here, as is standard in the nuclear receptor field, as an increased level of transcription through a tandem PPAR response element luciferase reporter (PPRE::Luc).

pre-adipose cell lines = assay: Fat cell differentiation (Oil Red O staining, adipogenic gene expression); type: cell-based
MC3T3-E1 cells = assay: Mineralization of osteoblastic cells (Alizarin red S staining, osteoblast gene expression); type: cell-based, mouse
Text: Moreover, the expression of genes involved in the differentiation of these cells was impaired (alkaline phosphatase, RANKL, type I collagen).

ob/ob mouse = assay: Leptin-deficient ob/ob mouse model; details: ob/ob mice
Description: A more severe model of obesity is the leptin-deficient ob/ob mouse. These animals are very obese and insulin-resistant, with substantial compensatory hyperinsulinemia. […] Functional analyses were performed at days 5 and 11 after the start of treatments.
Longer treatments with these drugs allowed an assessment of certain side effects.

RAW264.7 cells = assay: Inflammatory cytokine production in LPS stimulated RAW264.7 cells; type: cell-based
[4] = Lanthascreen competitive binding
[5] = PPRE-luciferase, COS-1 cells, NA = not active, read-out: EC50 (nM) PPRE

Chain of GST-PPARG-LBD (P37231 238-503): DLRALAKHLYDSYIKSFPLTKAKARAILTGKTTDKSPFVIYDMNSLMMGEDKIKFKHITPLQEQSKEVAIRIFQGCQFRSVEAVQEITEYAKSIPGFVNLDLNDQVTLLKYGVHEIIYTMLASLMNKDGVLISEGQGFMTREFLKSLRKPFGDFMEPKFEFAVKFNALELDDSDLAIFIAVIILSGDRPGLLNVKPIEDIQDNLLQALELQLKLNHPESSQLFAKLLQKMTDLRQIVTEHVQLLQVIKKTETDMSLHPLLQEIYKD

Compound | IC50 (GST-PPARG-LBD; [4]) [nM] | PPRE transactivation (% in parentheses) ([2]; rosiglitazone = 100%) | EC50 [2, 5] [nM] | other results
Cc1c(C)n(Cc2ccc(-c3ccccc3C(=O)O)cc2)c2ccc(C(=O)N[C@H]3COc4ccccc4C3)cc12 [Example 249, (R)-4′-((5-(chroman-3-ylcarbamoyl)-2,3-dimethyl-1H-indol-1-yl)methyl)-[1,1′-biphenyl]-2-carboxylic acid] | 22 | (1%) | – | EC50 [1, 5]: 80 nM
Cc1c(C)n(Cc2ccc(-c3ccccc3C(=O)O)cc2)c2ccc(C(=O)NCc3cccc(Cl)c3)cc12 [Example 109, 4′-((5-(3-chlorobenzylcarbamoyl)-2,3-dimethyl-1H-indol-1-yl)methyl)biphenyl-2-carboxylic acid] | 2 | (21%) | 12 | –
Cc1c(C)n(Cc2ccc(-c3ccccc3C(=O)O)cc2)c2ccc(C(=O)NCc3ccccc3Br)cc12 [Example 118, 4′-((5-((2-Bromobenzyl)carbamoyl)-2,3-dimethyl-1H-indol-1-yl)methyl)-[1,1′-biphenyl]-2-carboxylic acid] | 17 | (8%) | 86 | –
Cc1c(C)n(Cc2ccc(-c3ccccc3C(=O)O)cc2)c2ccc(C(=O)NCc3ccc(N(C)C)cc3)cc12 [compound 11, 4′-((5-(4-(Dimethylamino)benzylcarbamoyl)-2,3-dimethyl-1H-indol-1-yl)methyl)biphenyl-2-carboxylic acid] | 13 | (29%) | 154 | –
Cc1c(C)n(Cc2ccc(-c3ccccc3C(=O)O)cc2)c2ccc(C(=O)NCc3ccc(N)cc3)cc12 [Example 95, 4′-((5-(4-aminobenzylcarbamoyl)-2,3-dimethyl-1H-indol-1-yl)methyl)biphenyl-2-carboxylic acid] | 4 | (0%) | – | –
Cc1c(C)n(Cc2ccc(-c3ccccc3C(=O)O)cc2)c2ccc(C(=O)N[C@@H]3C[C@H]3c3ccccc3)cc12 [Example 294, 4′-((2,3-Dimethyl-5-(((1R,2S)-2-phenylcyclopropyl)carbamoyl)-1H-indol-1-yl)methyl)-[1,1′-biphenyl]-2-carboxylic acid] | – | – | – | IC50 (GST-PPARG-LBD; Lanthascreen PPARG competitive binding): 22 nM; EC50 ([1]; PPRE transactivation data, read-out: PPRE EC50): 517 nM; % transactivation (PPRE) [2]: (28%)
COC(=O)c1ccc(CNC(=O)c2ccc3c(c2)c(C)c(C)n3Cc2ccc(-c3ccccc3C(=O)O)cc2)cc1 [compound 16, 4′-((5-(4-(Methoxycarbonyl)benzylcarbamoyl)-2,3-dimethyl-1H-indol-1-yl)methyl)biphenyl-2-carboxylic acid] | 2 | (23%) | 59 | –
Cc1c(C)n(Cc2ccc(-c3ccccc3C(=O)O)cc2)c2ccc(C(=O)NC(C)CCc3ccccc3)cc12 (stereo not drawn) [Example 117, 4′-((2,3-dimethyl-5-(4-phenylbutan-2-ylcarbamoyl)-1H-indol-1-yl)methyl)biphenyl-2-carboxylic acid] | 3 | (17%) | 3 | –
Cc1c(C)n(Cc2ccc(-c3ccccc3C(=O)O)cc2)c2ccc(C(=O)NCc3ccc(S(C)(=O)=O)cc3)cc12 [compound 10, 4′-((2,3-Dimethyl-5-(4-(methylsulfonyl)benzylcarbamoyl)-1H-indol-1-yl)methyl)biphenyl-2-carboxylic acid] | 553 | (0%) | – | –
Cc1c(C)n(Cc2ccc(-c3ccccc3C(=O)O)cc2)c2ccc(C(=O)N[C@@H](C)c3cccc(Br)c3)cc12 [compound 30, (S)-4′-((5-((1-(3-Bromophenyl)ethyl)carbamoyl)-2,3-dimethyl-1H-indol-1-yl)methyl)-[1,1′-biphenyl]-2-carboxylic acid] | 58 | – | – | PPRE transactivation (% in parentheses) [2]: (18%); EC50 ([2]; read-out: EC50 (nM) PPRE): 20 nM
Cc1c(C)n(Cc2ccc(-c3ccccc3C(=O)O)cc2)c2ccc(C(=O)NCc3ccc(F)cc3)cc12 [Example 76, 4′-((5-(4-fluorobenzylcarbamoyl)-2,3-dimethyl-1H-indol-1-yl)methyl)biphenyl-2-carboxylic acid] | 5 | (15%) | 23 | –
Cc1c(C)n(Cc2ccc(-c3ccccc3C#N)cc2)c2ccc(C(=O)N[C@@H](C)c3ccc(Br)cc3)cc12 [Example 35, (S)—N-(1-(4-Bromophenyl)ethyl)-1-((2′-cyano-[1,1′-biphenyl]-4-yl)methyl)-2,3-dimethyl-1H-indole-5-carboxamide] | 40 | (9%) | 380 | –
C[C@H](NC(=O)c1ccc2c(ccn2Cc2ccc(-c3ccc(O)cc3)cc2)c1)c1ccc([N+](=O)[O-])cc1 [Example 47, (S)-1-((4′-Hydroxy-[1,1′-biphenyl]-4-yl)methyl)-N-(1-(4-nitrophenyl)ethyl)-1H-indole-5-carboxamide] | 300 | (0%) | – | –
Cc1c(C)n(Cc2ccc(-c3ccccc3C(=O)O)cc2)c2ccc(C(=O)NCc3ccc(C(C)C)cc3)cc12 [compound 9, 4′-((5-(4-Isopropylbenzylcarbamoyl)-2,3-dimethyl-1H-indol-1-yl)methyl)biphenyl-2-carboxylic acid] | 23 | (18%) | 7 | –
Cc1c(C)n(Cc2ccc(-c3ccccc3C(=O)O)cc2)c2ccc(C(=O)N[C@@H](C)c3ccc(Cl)cc3)cc12 [compound 27, (S)-4′-((5-((1-(4-Chlorophenyl)ethyl)carbamoyl)-2,3-dimethyl-1H-indol-1-yl)methyl)-[1,1′-biphenyl]-2-carboxylic acid] | 53 | (6%) | 33 | –
CN(CCOc1ccc(CC2SC(=O)NC2=O)cc1)c1ccccn1 (stereo not drawn) [rosiglitazone, reference compound] | – | […] | – | activation of the PPRE reporter ([2]; COS-1 cells): […]; % transactivation (PPRE) [2]: […]; EC50 ([2]; read-out: EC50 (nM) PPRE): […]; EC50 ([2]; read-out: PPRE EC50): […]; effect on cdk5 phosphorylation of the Rb protein [3]: no effect; fat cell differentiation / lipid accumulation (pre-adipose cell lines; Oil Red O staining): potently stimulated fat cell differentiation; expression of aP2, C/EBPα and Glut4 (pre-adipose cell lines; genes linked to adipogenesis): increased expression; expression of osteoblast differentiation genes (alkaline phosphatase, RANKL, type I collagen) (MC3T3-E1 cells): impaired; mineralization (calcification) (MC3T3-E1 cells; Alizarin red S staining): reduced the mineralization; glucose tolerance test (ob/ob mouse): markedly improved; insulin levels (ob/ob mouse; after five days of treatment): substantially reduced; fasting glucose levels (ob/ob mouse; after five days of treatment, vehicle 110±13): 88 ± 13 mg/dL; body fat / adiposity by MRI (ob/ob mouse; longer treatment): increase in body fat; concentration of hemoglobin (ob/ob mouse; longer treatment): […]; hematocrit (fluid retention) (ob/ob mouse; longer treatment): characteristic decrease; body weight (ob/ob mouse; longer treatment (11 days)): increase in body weight; production of inflammatory cytokines (RAW264.7 cells): inhibition of production of inflammatory cytokines
